In ChEMBL document CHEMBL3779873, “Rubrolide analogues and their derived lactams as potential anticancer agents” (Medchemcomm, 2016):
Converted amounts (≈) assume the structure as drawn. The source made the active and inactive calls. No cut-off for these calls is given here.

Experiments:
[1] = Cytotoxicity against human SF295 cells after 72 hrs by MTT assay; type: functional, SF-295
[2] = Cytotoxicity against human OVCAR8 cells assessed as reduction in cell viability at 25 ug/mL after 72 hrs by MTT assay; type: functional, OVCAR-8
[3] = Cytotoxicity against human SF295 cells assessed as reduction in cell viability at 25 ug/mL after 72 hrs by MTT assay; type: functional, SF-295
[4] = Cytotoxicity against human HCT116 cells assessed as reduction in cell viability at 25 ug/mL after 72 hrs by MTT assay; type: functional, HCT-116
[5] = Cytotoxicity against human HL60 cells after 72 hrs by MTT assay; type: functional, HL-60
[6] = Cytotoxicity against human HCT116 cells after 72 hrs by MTT assay; type: functional, HCT-116
[7] = Cytotoxicity against human OVCAR8 cells after 72 hrs by MTT assay; type: functional, OVCAR-8
[8] = system: HT-29; experiment: Cytotoxicity against human HT-29 cells; type: functional; conditions: read-out: ED50 (the source's name)
[9] = system: HL-60; experiment: Induction of apoptosis in human HL60 cells assessed as increase in necrotic cells after 24 hrs by acridine orange/ethidium bromide staining based fluorescence microscopy; type: functional, cell-based
[10] = system: HL-60; experiment: Induction of apoptosis in human HL60 cells assessed as mitochondrial depolarization at 5 uM after 24 hrs by rhodamine-123 as fluorescent dye based flow cytometry; type: functional
[11] = system: HL-60; experiment: Induction of apoptosis in human HL60 cells assessed as phosphatidylserine externalization at 2.5 uM after 24 hrs by annexin V/propidium iodide staining based flow cytometry; type: functional
[12] = system: HL-60; experiment: Induction of apoptosis in human HL60 cells assessed as chromatin condensation at 2.5 to 10 uM after 24 hrs by giemsa staining-based light microscopy analysis; type: functional, cell-based
[13] = system: HL-60; experiment: Induction of apoptosis in human HL60 cells assessed as mitochondrial depolarization at 10 uM after 24 hrs by rhodamine-123 as fluorescent dye based flow cytometry; type: functional
[14] = system: HL-60; experiment: Induction of apoptosis in human HL60 cells assessed as decrease in viable cells after 24 hrs by acridine orange/ethidium bromide staining based fluorescence microscopy; type: functional, cell-based
[15] = system: HL-60; experiment: Induction of cell cycle arrest in human HL60 cells assessed as accumulation at sub-G0/G1 phase at 5 uM after 24 hrs by annexin V/propidium iodide staining based flow cytometry (reference value: 6.10 +/- 0.28 %); type: functional
[16] = system: HL-60; experiment: Induction of apoptosis in human HL60 cells assessed as chromatolysis at 2.5 to 10 uM after 24 hrs by giemsa staining-based light microscopy analysis; type: functional, cell-based
[17] = system: HL-60; experiment: Induction of apoptosis in human HL60 cells assessed as increase in necrotic cells at 10 uM after 24 hrs by acridine orange/ethidium bromide staining based fluorescence microscopy; type: functional
[18] = system: HL-60; experiment: Induction of apoptosis in human HL60 cells assessed as intranuclear vacuoles at 2.5 to 10 uM after 24 hrs by giemsa staining-based light microscopy analysis; type: functional, cell-based
[19] = system: HL-60; experiment: Induction of apoptosis in human HL60 cells assessed as cytoplasmic budding at 2.5 to 10 uM after 24 hrs by giemsa staining-based light microscopy analysis; type: functional, cell-based
[20] = system: HL-60; experiment: Induction of apoptosis in human HL60 cells assessed as increase in apoptotic cells at 10 uM after 24 hrs by acridine orange/ethidium bromide staining based fluorescence microscopy; type: functional
[21] = system: HL-60; experiment: Induction of cell cycle arrest in human HL60 cells assessed as accumulation at G2/M phase at 10 uM after 24 hrs by annexin V/propidium iodide staining based flow cytometry (reference value: 19.04 +/- 1.10 %); type: functional
[22] = system: HL-60; experiment: Induction of cell cycle arrest in human HL60 cells assessed as accumulation at S phase at 10 uM after 24 hrs by annexin V/propidium iodide staining based flow cytometry (reference value: 27.64 +/- 2.15 %); type: functional
[23] = system: HL-60; experiment: Induction of apoptosis in human HL60 cells assessed as phosphatidylserine externalization at 10 uM after 24 hrs by annexin V/propidium iodide staining based flow cytometry; type: functional
[24] = system: HL-60; experiment: Induction of apoptosis in human HL60 cells assessed as decrease in viable cells at 5 uM after 24 hrs by acridine orange/ethidium bromide staining based fluorescence microscopy; type: functional
[25] = system: HL-60; experiment: Induction of apoptosis in human HL60 cells assessed as DNA fragmentation after 24 hrs by annexin V/propidium iodide staining based flow cytometry; type: functional, cell-based
[26] = system: HL-60; experiment: Induction of apoptosis in human HL60 cells assessed as phosphatidylserine externalization at 5 uM after 24 hrs by annexin V/propidium iodide staining based flow cytometry; type: functional
[27] = system: HL-60; experiment: Induction of apoptosis in human HL60 cells assessed as increase in apoptotic cells after 24 hrs by acridine orange/ethidium bromide staining based fluorescence microscopy; type: functional, cell-based
[28] = system: HL-60; experiment: Induction of cell cycle arrest in human HL60 cells assessed as accumulation at sub-G0/G1 phase at 2.5 uM after 24 hrs by annexin V/propidium iodide staining based flow cytometry (reference value: 6.10 +/- 0.28 %); type: functional
[29] = system: HL-60; experiment: Induction of apoptosis in human HL60 cells assessed as mitochondrial depolarization at 2.5 uM after 24 hrs by rhodamine-123 as fluorescent dye based flow cytometry; type: functional
[30] = system: HL-60; experiment: Induction of cell cycle arrest in human HL60 cells assessed as accumulation at S phase at 2.5 uM after 24 hrs by annexin V/propidium iodide staining based flow cytometry (reference value: 27.64 +/- 2.15 %); type: functional
[31] = system: HL-60; experiment: Induction of apoptosis in human HL60 cells assessed as increase in apoptotic cells at 5 uM after 24 hrs by acridine orange/ethidium bromide staining based fluorescence microscopy; type: functional
[32] = system: HL-60; experiment: Induction of cell cycle arrest in human HL60 cells assessed as accumulation at G0/G1 phase at 5 uM after 24 hrs by annexin V/propidium iodide staining based flow cytometry (reference value: 45.81 +/- 3.16 %); type: functional
[33] = Cytotoxicity against mouse L929 cells after 72 hrs by MTT assay; type: cell-based; conditions: read-out: RC50
[34] = system: HL-60; experiment: Induction of cell cycle arrest in human HL60 cells assessed as accumulation at G0/G1 phase at 2.5 uM after 24 hrs by annexin V/propidium iodide staining based flow cytometry (reference value: 45.81 +/- 3.16 %); type: functional
[35] = system: HL-60; experiment: Induction of apoptosis in human HL60 cells assessed as decrease in viable cells at 10 uM after 24 hrs by acridine orange/ethidium bromide staining based fluorescence microscopy; type: functional
[36] = system: HL-60; experiment: Induction of cell cycle arrest in human HL60 cells assessed as accumulation at G0/G1 phase at 10 uM after 24 hrs by annexin V/propidium iodide staining based flow cytometry (reference value: 45.81 +/- 3.16 %); type: functional
[37] = system: HL-60; experiment: Induction of apoptosis in human HL60 cells assessed as mitochondrial depolarization after 24 hrs by rhodamine-123 as fluorescent dye based flow cytometry; type: functional, cell-based
[38] = system: HL-60; experiment: Induction of cell cycle arrest in human HL60 cells assessed as accumulation at G2/M phase at 5 uM after 24 hrs by annexin V/propidium iodide staining based flow cytometry (reference value: 19.04 +/- 1.10 %); type: functional
[39] = system: HL-60; experiment: Induction of apoptosis in human HL60 cells assessed as reduction in cellular and nuclear volumes at 2.5 to 10 uM after 24 hrs by giemsa staining-based light microscopy analysis; type: functional, cell-based
[40] = system: HL-60; experiment: Induction of cell cycle arrest in human HL60 cells assessed as accumulation at G2/M phase at 2.5 uM after 24 hrs by annexin V/propidium iodide staining based flow cytometry (reference value: 19.04 +/- 1.10 %); type: functional
[41] = system: HL-60; experiment: Induction of cell cycle arrest in human HL60 cells assessed as accumulation at sub-G0/G1 phase at 10 uM after 24 hrs by annexin V/propidium iodide staining based flow cytometry (reference value: 6.10 +/- 0.28 %); type: functional
[42] = system: HL-60; experiment: Induction of cell cycle arrest in human HL60 cells assessed as accumulation at S phase at 5 uM after 24 hrs by annexin V/propidium iodide staining based flow cytometry (reference value: 27.64 +/- 2.15 %); type: functional

COc1ccc(Br)cc1C1=C(Br)C(=O)O/C1=C\c1ccc(F)cc1
RC50 [1]: 15.44 µM | Activity [2]: 94.68% | Activity [3]: 82.06% | Activity [4]: 94.87% | RC50 [5]: 9.8 µM | RC50 [6]: 13.06 µM | RC50 [7]: 5.17 µM

O=C1O/C(=C\c2ccccc2Br)C(Cl)=C1Cl
RC50 [1]: 32.64 µM | Activity [2]: 93.14% | Activity [3]: 92.81% | Activity [4]: 97.58% | RC50 [5]: 10.01 µM | RC50 [6]: 32.22 µM | RC50 [7]: 11.64 µM

O=C1O/C(=C\c2ccc(O)c(Br)c2)C(c2ccc(O)c(Br)c2)=C1Cl
EC50 [8]: 1.2 µg/mL (≈ 2.54 µM)

O=C1O/C(=C\c2ccc(O)c(Br)c2)C(c2ccc(O)cc2)=C1Cl
EC50 [8]: 1.2 µg/mL (≈ 3.05 µM)

COc1ccc(Cl)cc1C1=C(Br)C(=O)O/C1=C\c1ccc(C(F)(F)F)cc1
RC50 [1]: 14.12 µM | Activity [2]: 96.84% | Activity [3]: 80.1% | Activity [4]: 91.81% | RC50 [5]: 5.5 µM | RC50 [6]: 12.66 µM | RC50 [7]: 7.51 µM

O=C1O/C(=C\c2ccc([N+](=O)[O-])cc2)C(Cl)=C1Cl
RC50 [1]: 29.37 µM | Activity [2]: 98.2% | Activity [3]: 84.12% | Activity [4]: 93.05% | RC50 [5]: 8.98 µM | RC50 [6]: 22.76 µM | RC50 [7]: 9.51 µM

COc1ccc(Br)cc1C1=C(Br)C(=O)N(CC(C)C)C1(O)Cc1cccc(Cl)c1 (centres undefined)
Activity [2]: 98.49% | Activity [3]: 78.09% | Activity [4]: 92.75%

O=C1O/C(=C\c2ccc(Br)cc2)C(Cl)=C1Cl
Activity [9]: Dose-dependent effect | Activity [10]: 37.1% | Activity [11]: 9.5% | Activity [12]: Active | Activity [13]: 56.2% | Activity [14]: Dose-dependent effect | RC50 [1]: 14.68 µM | Activity [15]: 29.63% | Activity [16]: Active | Activity [17]: 12.7% | Activity [2]: 98.99% | Activity [18]: Active | Activity [3]: 94.12% | Activity [4]: 98.27% | Activity [19]: Active | RC50 [5]: 3 µM | Activity [20]: 46.8% | Activity [21]: 2.71% | Activity [22]: 7.26% | Activity [23]: 29% | Activity [24]: 17.7% | Activity [25]: Dose-dependent effect | Activity [26]: 19% | Activity [27]: Dose-dependent effect | Activity [28]: 17.5% | Activity [29]: 21.7% | Activity [30]: 24.16% | RC50 [6]: 8.18 µM | Activity [31]: 24.1% | Activity [32]: 43.19% | CC50 at 72 h [33]: > 50 µM | Activity [34]: 45.29% | Activity [35]: 47.3% | Activity [36]: 33.59% | Activity [37]: Dose-dependent effect | RC50 [7]: 13.68 µM | Activity [38]: 4.68% | Activity [39]: Active | Activity [40]: 7.39% | Activity [41]: 51.26% | Activity [42]: 14.77%

COc1cccc(/C=C2/C(c3cc(Cl)ccc3OC)=C(Br)C(=O)N2CC(C)C)c1
Activity [2]: 42.28% | Activity [3]: 25.57% | Activity [4]: 38.65%

COc1ccc(Br)cc1C1=C(Br)C(=O)N(CC(C)C)/C1=C/c1cccc(Cl)c1
RC50 [1]: 8.03 µM | Activity [2]: 93.39% | Activity [3]: 90.65% | Activity [4]: 93.44% | RC50 [5]: 3.46 µM | RC50 [6]: 5.52 µM | RC50 [7]: 4.18 µM
